Reference: the supplement of paper PMC10307832

Tests used:
Assay in all cases: relative viability (nuclei count vs DMSO), 5 days (fraction); higher = more cells survive
LCLC-103H = system: LCLC-103H
Summary of the method: (§1)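 Lung cancer cell lines, seeded in 1536-well plates, were treated the following day by pin tool with a single drug or with five library-drug doses (not always all listed) in √10 steps on top of a fixed anchor-drug dose. Cells were fixed and nuclei stained in one step after 5 days, and nuclei were counted. Relative viability is the nuclei count for treated wells divided by that for vehicle wells, reported as medians of duplicate plates.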

LXF-289 = system: LXF-289
Summary of the method: as §1

LCLC-97TM1 = system: LCLC-97TM1
Summary of the method: as §1

NCI-H1650 = system: NCI-H1650
Summary of the method: as §1

NCI-H1437 = system: NCI-H1437
Summary of the method: as §1

NCI-H1792 = system: NCI-H1792
Summary of the method: as §1

NCI-H2405 = system: NCI-H2405
Summary of the method: as §1

HCC-827 = system: HCC-827
Summary of the method: as §1

SK-LU-1 = system: SK-LU-1
Summary of the method: as §1

NCI-H2087 = system: NCI-H2087
Summary of the method: as §1

NCI-H322M = system: NCI-H322M
Summary of the method: as §1

NCI-H1944 = system: NCI-H1944
Summary of the method: as §1

NCI-H3122 = system: NCI-H3122
Summary of the method: as §1

NCI-H647 = system: NCI-H647
Summary of the method: as §1

RERF-LC-KJ = system: RERF-LC-KJ
Summary of the method: as §1

201T = system: 201T
Summary of the method: as §1

BEN = system: BEN
Summary of the method: as §1

NCI-H2228 = system: NCI-H2228
Summary of the method: as §1

CAL-12T = system: CAL-12T
Summary of the method: as §1

NCI-H727 = system: NCI-H727
Summary of the method: as §1

Q: With Nc1ccn([C@@H]2O[C@H](CO)[C@@H](O)[C@@H]2O)c(=O)n1 [Cytarabine] + C[C@@H](Oc1cc(-c2cnn(C3CCNCC3)c2)cnc1N)c1c(Cl)ccc(F)c1Cl [Crizotinib] (partner 1 µM) as the compound, how does the relative viability (LCLC-103H; first compound 0.005 µM) read?
A: 0.942

Q: What about the relative viability (LCLC-103H; first compound 0.01581 µM) of the same compound?
A: 1.03

Q: What about the relative viability (LCLC-103H; first compound 0.05 µM) of the same compound?
A: 1.07

Q: What about the relative viability (LCLC-103H; first compound 0.1581 µM) of the same compound?
A: 1.03

Q: What about the relative viability (LCLC-103H; first compound 0.5 µM) of the same compound?
A: 0.977

Q: What about the relative viability (LXF-289; first compound 0.005 µM) of the same compound?
A: 0.745

Q: And the relative viability (LXF-289; first compound 0.01581 µM)?
A: 0.78

Q: What about the relative viability (LXF-289; first compound 0.05 µM) of the same compound?
A: 0.663

Q: And the relative viability (LXF-289; first compound 0.1581 µM)?
A: 0.339

Q: And the relative viability (LXF-289; first compound 0.5 µM)?
A: 0.389

Q: What about the relative viability (LCLC-97TM1; first compound 0.005 µM) of the same compound?
A: 0.487

Q: What about the relative viability (LCLC-97TM1; first compound 0.01581 µM) of the same compound?
A: 0.213

Q: What about the relative viability (LCLC-97TM1; first compound 0.05 µM) of the same compound?
A: 0.181

Q: What about the relative viability (LCLC-97TM1; first compound 0.1581 µM) of the same compound?
A: 0.115

Q: What about the relative viability (LCLC-97TM1; first compound 0.5 µM) of the same compound?
A: 0.106

Q: What about the relative viability (NCI-H1650; first compound 0.005 µM) of the same compound?
A: 0.752

Q: And the relative viability (NCI-H1650; first compound 0.01581 µM)?
A: 1.05

Q: What about the relative viability (NCI-H1650; first compound 0.05 µM) of the same compound?
A: 0.544

Q: What about the relative viability (NCI-H1650; first compound 0.1581 µM) of the same compound?
A: 0.315

Q: And the relative viability (NCI-H1650; first compound 0.5 µM)?
A: 0.188

Q: And the relative viability (NCI-H1437; first compound 0.005 µM)?
A: 0.576

Q: And the relative viability (NCI-H1437; first compound 0.01581 µM)?
A: 0.817

Q: What about the relative viability (NCI-H1437; first compound 0.05 µM) of the same compound?
A: 0.472

Q: What about the relative viability (NCI-H1437; first compound 0.1581 µM) of the same compound?
A: 0.258

Q: And the relative viability (NCI-H1437; first compound 0.5 µM)?
A: 0.156

Q: And the relative viability (NCI-H1792; first compound 0.005 µM)?
A: 0.624

Q: What about the relative viability (NCI-H1792; first compound 0.01581 µM) of the same compound?
A: 0.882

Q: What about the relative viability (NCI-H1792; first compound 0.05 µM) of the same compound?
A: 0.861

Q: And the relative viability (NCI-H1792; first compound 0.1581 µM)?
A: 0.53

Q: What about the relative viability (NCI-H1792; first compound 0.5 µM) of the same compound?
A: 0.465

Q: What about the relative viability (NCI-H2405; first compound 0.005 µM) of the same compound?
A: 0.754

Q: What about the relative viability (NCI-H2405; first compound 0.01581 µM) of the same compound?
A: 0.693

Q: What about the relative viability (NCI-H2405; first compound 0.05 µM) of the same compound?
A: 0.592

Q: And the relative viability (NCI-H2405; first compound 0.1581 µM)?
A: 0.464

Q: What about the relative viability (NCI-H2405; first compound 0.5 µM) of the same compound?
A: 0.327

Q: What about the relative viability (HCC-827; first compound 0.005 µM) of the same compound?
A: 0.593

Q: And the relative viability (HCC-827; first compound 0.01581 µM)?
A: 0.478

Q: And the relative viability (HCC-827; first compound 0.05 µM)?
A: 0.477

Q: And the relative viability (HCC-827; first compound 0.1581 µM)?
A: 0.197

Q: And the relative viability (HCC-827; first compound 0.5 µM)?
A: 0.249

Q: And the relative viability (SK-LU-1; first compound 0.005 µM)?
A: 0.957

Q: What about the relative viability (SK-LU-1; first compound 0.01581 µM) of the same compound?
A: 0.83

Q: And the relative viability (SK-LU-1; first compound 0.05 µM)?
A: 0.694

Q: And the relative viability (SK-LU-1; first compound 0.1581 µM)?
A: 0.605

Q: And the relative viability (SK-LU-1; first compound 0.5 µM)?
A: 0.398

Q: What about the relative viability (NCI-H2087; first compound 0.005 µM) of the same compound?
A: 0.702

Q: And the relative viability (NCI-H2087; first compound 0.01581 µM)?
A: 0.886

Q: And the relative viability (NCI-H2087; first compound 0.05 µM)?
A: 0.69

Q: And the relative viability (NCI-H2087; first compound 0.1581 µM)?
A: 0.731

Q: And the relative viability (NCI-H2087; first compound 0.5 µM)?
A: 0.537

Q: And the relative viability (NCI-H322M; first compound 0.005 µM)?
A: 0.858

Q: And the relative viability (NCI-H322M; first compound 0.01581 µM)?
A: 0.676

Q: What about the relative viability (NCI-H322M; first compound 0.05 µM) of the same compound?
A: 0.534

Q: And the relative viability (NCI-H322M; first compound 0.1581 µM)?
A: 0.366

Q: And the relative viability (NCI-H322M; first compound 0.5 µM)?
A: 0.318

Q: And the relative viability (NCI-H1944; first compound 0.005 µM)?
A: 0.9

Q: What about the relative viability (NCI-H1944; first compound 0.01581 µM) of the same compound?
A: 0.466

Q: And the relative viability (NCI-H1944; first compound 0.05 µM)?
A: 0.367

Q: What about the relative viability (NCI-H1944; first compound 0.1581 µM) of the same compound?
A: 0.2

Q: What about the relative viability (NCI-H1944; first compound 0.5 µM) of the same compound?
A: 0.176

Q: And the relative viability (NCI-H3122; first compound 0.005 µM)?
A: 0.264

Q: And the relative viability (NCI-H3122; first compound 0.01581 µM)?
A: 0.239

Q: What about the relative viability (NCI-H3122; first compound 0.05 µM) of the same compound?
A: 0.244

Q: What about the relative viability (NCI-H3122; first compound 0.1581 µM) of the same compound?
A: 0.192

Q: And the relative viability (NCI-H3122; first compound 0.5 µM)?
A: 0.204

Q: And the relative viability (NCI-H647; first compound 0.005 µM)?
A: 0.613

Q: What about the relative viability (NCI-H647; first compound 0.01581 µM) of the same compound?
A: 0.518

Q: And the relative viability (NCI-H647; first compound 0.05 µM)?
A: 0.243

Q: And the relative viability (NCI-H647; first compound 0.1581 µM)?
A: 0.11

Q: What about the relative viability (NCI-H647; first compound 0.5 µM) of the same compound?
A: 0.116

Q: And the relative viability (RERF-LC-KJ; first compound 0.005 µM)?
A: 0.853

Q: What about the relative viability (RERF-LC-KJ; first compound 0.01581 µM) of the same compound?
A: 0.845

Q: And the relative viability (RERF-LC-KJ; first compound 0.05 µM)?
A: 0.759

Q: What about the relative viability (RERF-LC-KJ; first compound 0.1581 µM) of the same compound?
A: 0.502

Q: And the relative viability (RERF-LC-KJ; first compound 0.5 µM)?
A: 0.4

Q: And the relative viability (201T; first compound 0.005 µM)?
A: 1.04

Q: And the relative viability (201T; first compound 0.01581 µM)?
A: 0.999

Q: And the relative viability (201T; first compound 0.05 µM)?
A: 1.01

Q: And the relative viability (201T; first compound 0.1581 µM)?
A: 0.97

Q: What about the relative viability (201T; first compound 0.5 µM) of the same compound?
A: 1

Q: What about the relative viability (BEN; first compound 0.005 µM) of the same compound?
A: 0.605

Q: What about the relative viability (BEN; first compound 0.01581 µM) of the same compound?
A: 0.66

Q: And the relative viability (BEN; first compound 0.05 µM)?
A: 0.449

Q: And the relative viability (BEN; first compound 0.1581 µM)?
A: 0.311

Q: And the relative viability (BEN; first compound 0.5 µM)?
A: 0.292

Q: And the relative viability (NCI-H2228; first compound 0.005 µM)?
A: 0.373

Q: And the relative viability (NCI-H2228; first compound 0.01581 µM)?
A: 0.31

Q: And the relative viability (NCI-H2228; first compound 0.05 µM)?
A: 0.218

Q: What about the relative viability (NCI-H2228; first compound 0.1581 µM) of the same compound?
A: 0.124

Q: And the relative viability (NCI-H2228; first compound 0.5 µM)?
A: 0.151

Q: What about the relative viability (CAL-12T; first compound 0.005 µM) of the same compound?
A: 0.413

Q: And the relative viability (CAL-12T; first compound 0.01581 µM)?
A: 0.753

Q: What about the relative viability (CAL-12T; first compound 0.05 µM) of the same compound?
A: 0.703

Q: And the relative viability (CAL-12T; first compound 0.1581 µM)?
A: 0.511

Q: And the relative viability (CAL-12T; first compound 0.5 µM)?
A: 0.153

Q: And the relative viability (NCI-H727; first compound 0.005 µM)?
A: 0.724

Q: And the relative viability (NCI-H727; first compound 0.01581 µM)?
A: 0.579

Q: And the relative viability (NCI-H727; first compound 0.05 µM)?
A: 0.636

Q: What about the relative viability (NCI-H727; first compound 0.1581 µM) of the same compound?
A: 0.359

Q: What about the relative viability (NCI-H727; first compound 0.5 µM) of the same compound?
A: 0.3
